Laboratory results taken from publication PMC9944328 (Nature Communications, 2023).
“And” between values parts separate entries of the source, which are not always exact repeats. Equal values may be shown once.

Molecular target: SSTR2 (Homo sapiens, UniProt P30874)
Test: SSTRs Gi-mediated cAMP inhibition, GloSensor, HEK293, 5 μM forskolin, 15 min room temperature (SSTR2 wild-type);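 as to Bottom (best-fit value): normalized to the maximal wild-type response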;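 as to Bottom (best-fit): normalized to the maximal wild-type response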;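 as to Span (best-fit value), cAMP inhibition: normalized to the maximal wild-type response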;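 as to Span (best-fit value): normalized to the maximal wild-type response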;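 as to Span (best-fit): normalized to the maximal wild-type response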;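 as to Span: normalized to the maximal wild-type response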;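 as to Top (best-fit): normalized to the maximal wild-type response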
Type: cell-based
Set-up: Best-fit Top, cAMP inhibition / Span, cAMP inhibition / Best-fit Bottom / Best-fit Top / Best-fit Span / Bottom / Span (best-fit value), cAMP inhibition / Top (best-fit value), cAMP inhibition: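 normalized to the maximal wild-type response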
Conditions: for Bottom (best-fit value) / LogEC50 (best-fit value) / Span (best-fit value) / Top (best-fit value): Y205A panel
Procedure: The levels of the intracellular 3′, 5′-cyclic AMP (cAMP) were measured by the GloSensor cAMP assay (Promega) as described in the previous studies[28],[41] which has been widely used. The human full-length SSTRs and mutants were cloned into the pcDNA3.1+ vector with a HA signal sequence followed by a Flag tag at the N-terminus. HEK293 cells (ATCC, CRL-1573) were seeded into 6-well microplates at a density of 1.0 × 10^6 cells/well and cultured for 24 h at 37 °C with 5% CO2. Cells were then co-transfected with SSTR wild-type or mutants and GloSensor plasmids. After 24 h of transfection, the cells were dissociated with TrypLE™ Express Enzyme (1X) (Thermo Fisher Scientific) and collected by centrifugation at 500 × g for 5 min. Then the collected cells were suspended in Hank’s balanced salt solution [HBSS (Thermo Fisher Scientific)] supplemented with […] (YEASEN), and then the suspension cells were seeded into 96-well plates with 90 μl/well. After incubating at room temperature for 40 min, 5 μM forskolin and ligands diluted in HBSS were added to each well and the plates were incubated at room temperature for 15 min. […] were measured using the Synergy H1 microplate reader (BioTek) and the data presented are means of at least three independent experiments.

[1] = WT-2 (run 2 of each mutant's batch)
[2] = WT-3 (run 3 of each mutant's batch)
[3] = cAMP inhibition best-fit, D122A set, WT-1
[4] = cAMP inhibition best-fit, D122A set, WT-2
[5] = cAMP inhibition best-fit, D122A set, WT-3
[6] = cAMP inhibition best-fit, F127A set, WT-1
[7] = cAMP inhibition best-fit, F127A set, WT-2
[8] = cAMP inhibition best-fit, F127A set, WT-3
[9] = cAMP inhibition best-fit, I130A set, WT-1
[10] = cAMP inhibition best-fit, I130A set, WT-2
[11] = cAMP inhibition best-fit, I130A set, WT-3
[12] = cAMP inhibition best-fit, Q102A set, WT-1
[13] = cAMP inhibition best-fit, Q102A set, WT-2
[14] = cAMP inhibition best-fit, Q102A set, WT-3
[15] = cAMP inhibition best-fit, Q126A set, WT-1
[16] = cAMP inhibition best-fit, Q126A set, WT-2
[17] = cAMP inhibition best-fit, Q126A set, WT-3
[18] = cAMP inhibition best-fit, V103A set, WT-1
[19] = cAMP inhibition best-fit, V103A set, WT-2
[20] = cAMP inhibition best-fit, V103A set, WT-3

Chain of SSTR2 (P30874 whole entry): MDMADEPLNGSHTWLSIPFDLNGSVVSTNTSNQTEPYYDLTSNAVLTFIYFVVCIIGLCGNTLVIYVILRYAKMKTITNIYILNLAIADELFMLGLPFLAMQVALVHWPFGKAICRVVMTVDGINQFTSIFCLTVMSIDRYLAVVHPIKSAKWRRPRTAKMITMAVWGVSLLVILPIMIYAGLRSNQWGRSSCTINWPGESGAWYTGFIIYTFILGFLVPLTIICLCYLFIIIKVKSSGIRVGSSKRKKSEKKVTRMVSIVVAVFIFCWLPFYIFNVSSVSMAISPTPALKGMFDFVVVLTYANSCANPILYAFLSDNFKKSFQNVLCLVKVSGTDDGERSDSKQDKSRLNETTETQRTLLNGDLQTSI

`N#Cc1cccc(-c2ccc3ncc(-c4cc(F)cc(F)c4)c(N4CCC(N)CC4)c3c2)c1O` [paltusotine] was tested, and the “Span (best-fit)” value (WT-1, run paired with T194H) was 111, the “Top (best-fit)” value (WT-1, run paired with T194H) was 106.2 and the “Bottom (best-fit)” value (WT-1, run paired with V103N) was 16.51. For the same molecule, the LogEC50 (WT-1, run paired with V103N) was -8.678, the “Span (best-fit)” value (WT-1, run paired with V103N) was 89.51 and the “Top (best-fit)” value (WT-1, run paired with V103N) was 106. For the same molecule, the LogEC50 (WT-1, run paired with Y205R) was -9.27, the “Span (best-fit)” value (WT-1, run paired with Y205R) was 108.3 and the “Top (best-fit)” value (WT-1, run paired with Y205R) was 106.3. For the same molecule, the “Span (best-fit value), cAMP inhibition” value [1] was 111.8 and 113.8 and 107.7 and 112.3, the “Top (best-fit value), cAMP inhibition” value [1] was 108 and 108.3 and 107.8 and 112.4 and the “Bottom (best-fit)” value (WT-2, run paired with D295F) was -1.411. The LogEC50 (WT-2, run paired with D295F) was -9.3, the “Span (best-fit)” value (WT-2, run paired with D295F) was 105.2 and the “Top (best-fit)” value (WT-2, run paired with D295F) was 103.8. The “Bottom (best-fit)” value (WT-2, run paired with F294Y) was -1.411, the LogEC50 (WT-2, run paired with F294Y) was -9.3 and the “Span (best-fit)” value (WT-2, run paired with F294Y) was 105.2. The “Top (best-fit)” value (WT-2, run paired with F294Y) was 103.8, the “Bottom (best-fit)” value (WT-2, run paired with I195M) was 10.59 and the LogEC50 (WT-2, run paired with I195M) was -8.695. The “Span (best-fit)” value (WT-2, run paired with I195M) was 88.58, the “Top (best-fit)” value (WT-2, run paired with I195M) was 99.16 and the “Bottom (best-fit)” value (WT-2, run paired with T194H) was -0.3773. The LogEC50 (WT-2, run paired with T194H) was -8.796, the “Span (best-fit)” value (WT-2, run paired with T194H) was 113.8 and the “Top (best-fit)” value (WT-2, run paired with T194H) was 113.4. For the same molecule, the “Bottom (best-fit)” value (WT-2, run paired with V103N) was 8.218, the LogEC50 (WT-2, run paired with V103N) was -8.87 and the “Span (best-fit)” value (WT-2, run paired with V103N) was 100.4. For the same molecule, the “Top (best-fit)” value (WT-2, run paired with V103N) was 108.6, the LogEC50 (WT-2, run paired with Y205R) was -9.271 and the “Span (best-fit)” value (WT-2, run paired with Y205R) was 104.8. For the same molecule, the “Top (best-fit)” value (WT-2, run paired with Y205R) was 105.4, the “Span (best-fit value), cAMP inhibition” value [2] was 106.7 and 111.8 and 113.8 and 112.4 and 113.7 and the “Top (best-fit value), cAMP inhibition” value [2] was 107.8 and 108 and 112 and 113.6. For the same molecule, the “Bottom (best-fit)” value (WT-3, run paired with D295F) was 12.84, the LogEC50 (WT-3, run paired with D295F) was -8.964 and the “Span (best-fit)” value (WT-3, run paired with D295F) was 85.7. For the same molecule, the “Top (best-fit)” value (WT-3, run paired with D295F) was 98.54, the “Bottom (best-fit)” value (WT-3, run paired with F294Y) was -4.818 and the LogEC50 (WT-3, run paired with F294Y) was -8.937. For the same molecule, the “Span (best-fit)” value (WT-3, run paired with F294Y) was 111, the “Top (best-fit)” value (WT-3, run paired with F294Y) was 106.2 and the “Bottom (best-fit)” value (WT-3, run paired with T194H) was 8.218. For the same molecule, the LogEC50 (WT-3, run paired with T194H) was -8.87, the “Span (best-fit)” value (WT-3, run paired with T194H) was 100.4 and the “Top (best-fit)” value (WT-3, run paired with T194H) was 108.6. The “Bottom (best-fit)” value (WT-3, run paired with V103N) was -2.506, the LogEC50 (WT-3, run paired with V103N) was -8.966 and the “Span (best-fit)” value (WT-3, run paired with V103N) was 107.7. For the same molecule, the “Top (best-fit)” value (WT-3, run paired with V103N) was 105.2, the LogEC50 (WT-3, run paired with Y205R) was -8.678 and the “Span (best-fit)” value (WT-3, run paired with Y205R) was 89.51. For the same molecule, the “Top (best-fit)” value (WT-3, run paired with Y205R) was 106, the “Bottom (best-fit value)” value (WT-1 (run 1)) was -1.411 and the “LogEC50 (best-fit value)” value (WT-1 (run 1)) was -9.3. The “Span (best-fit value)” value (WT-1 (run 1)) was 105.2, the “Top (best-fit value)” value (WT-1 (run 1)) was 103.8 and the “Bottom (best-fit value)” value (WT-2 (run 2)) was 7.891. The “LogEC50 (best-fit value)” value (WT-2 (run 2)) was -9.109, the “Span (best-fit value)” value (WT-2 (run 2)) was 96.39 and the “Top (best-fit value)” value (WT-2 (run 2)) was 104.3. For the same molecule, the “Bottom (best-fit value)” value (WT-3 (run 3)) was 0.01788, the “LogEC50 (best-fit value)” value (WT-3 (run 3)) was -8.988 and the “Span (best-fit value)” value (WT-3 (run 3)) was 104.7. The “Top (best-fit value)” value (WT-3 (run 3)) was 104.8, the Bottom [3] was -4.038 and the LogEC50 [3] was -8.63. It also gave a Span [3] of 111.8, a Top [3] of 107.8 and a Bottom [4] of -5.769. It also gave a LogEC50 [4] of -8.575, a Span [4] of 113.8 and a Top [4] of 108. It also gave a Bottom [5] of -1.411, a LogEC50 [5] of -9.3 and a Span [5] of 105.2. The Top [5] was 103.8, the Bottom [6] was -0.438 and the LogEC50 [6] was -8.811. For the same molecule, the Span [6] was 112.4, the Top [6] was 112 and the Bottom [7] was -4.818. The LogEC50 [7] was -8.937, the Span [7] was 111 and the Top [7] was 106.2. The Bottom [8] was -0.9578, the LogEC50 [8] was -9.526 and the Span [8] was 107.3. For the same molecule, the Top [8] was 106.4, the Bottom [9] was -3.466 and the LogEC50 [9] was -9.53. For the same molecule, the Span [9] was 116.5, the Top [9] was 113 and the Bottom [10] was -6.932. It also gave a LogEC50 [10] of -9.494, a Span [10] of 126.2 and a Top [10] of 119.3. The Bottom [11] was -3.016, the LogEC50 [11] was -8.949 and the Span [11] was 106.8. It also gave a Top [11] of 103.7, a LogEC50 [12] of -9.218 and a Span [12] of 100.2. The Top [12] was 103.5, the LogEC50 [13] was -8.923 and the Span [13] was 98.67. The Top [13] was 106.5, the LogEC50 [14] was -8.998 and the Span [14] was 106.7. It also gave a Top [14] of 106.1, a Bottom [15] of 7.891 and a LogEC50 [15] of -9.109. It also gave a Span [15] of 96.39, a Top [15] of 104.3 and a Bottom [16] of -2.459. For the same molecule, the LogEC50 [16] was -8.801, the Span [16] was 121.7 and the Top [16] was 119.3. It also gave a Bottom [17] of 2.655, a LogEC50 [17] of -9.073 and a Span [17] of 104.2. It also gave a Top [17] of 106.8, a Bottom [18] of -2.459 and a LogEC50 [18] of -8.801. For the same molecule, the Span [18] was 121.7, the Top [18] was 119.3 and the Bottom [19] was 3.281. The LogEC50 [19] was -9.218, the Span [19] was 100.2 and the Top [19] was 103.5. It also gave a Bottom [20] of 7.801, a LogEC50 [20] of -8.923 and a Span [20] of 98.67. For the same molecule, the Top [20] was 106.5.
